Tests used:
[1] = tested on: Fibroblast growth factor receptor 2 (Homo sapiens), P21802 [N549H]; test: Inhibition of human FGFR2 N549H mutant catalytic domain expressed in baculovirus assessed as substrate phosphorylation using fluorescence-labelled peptides as substrate at 0.06 uM after 90 mins by microfluidic peptide phosphorylation assay
[2] = target: Protein kinase C theta type (Homo sapiens) (UniProt Q04759); test: Inhibition of human truncated PKC theta expressed in baculovirus assessed as substrate phosphorylation using fluorescence-labelled peptides as substrate at 420 uM after 90 mins by microfluidic peptide phosphorylation assay
[3] = target: T1, Cytoplasmic tyrosine-protein kinase BMX (Homo sapiens) (UniProt P51813); test: Inhibition of human full length BMX expressed in baculovirus assessed as substrate phosphorylation using fluorescence-labelled peptides as substrate at 0.2 uM after 90 mins by microfluidic peptide phosphorylation assay
T1 sequence (whole entry): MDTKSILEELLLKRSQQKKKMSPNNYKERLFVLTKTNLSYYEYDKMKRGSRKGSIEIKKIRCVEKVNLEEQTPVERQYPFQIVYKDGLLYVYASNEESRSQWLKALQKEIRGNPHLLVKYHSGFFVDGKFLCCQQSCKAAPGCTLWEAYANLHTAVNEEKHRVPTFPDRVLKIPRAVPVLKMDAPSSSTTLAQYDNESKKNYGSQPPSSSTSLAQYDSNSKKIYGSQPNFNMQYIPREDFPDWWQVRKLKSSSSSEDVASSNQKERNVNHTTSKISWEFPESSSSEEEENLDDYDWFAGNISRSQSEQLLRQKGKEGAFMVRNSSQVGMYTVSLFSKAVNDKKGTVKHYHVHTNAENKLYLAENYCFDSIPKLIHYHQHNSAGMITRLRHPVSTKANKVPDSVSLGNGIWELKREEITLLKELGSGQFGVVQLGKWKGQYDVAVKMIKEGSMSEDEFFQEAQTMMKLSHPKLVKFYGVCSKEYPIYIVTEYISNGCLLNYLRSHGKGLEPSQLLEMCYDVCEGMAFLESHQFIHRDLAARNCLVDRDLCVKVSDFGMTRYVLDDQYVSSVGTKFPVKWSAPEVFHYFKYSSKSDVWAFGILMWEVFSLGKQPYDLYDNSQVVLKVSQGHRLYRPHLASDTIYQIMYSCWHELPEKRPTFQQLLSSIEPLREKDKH

[4] = target: Proto-oncogene tyrosine-protein kinase Src (Homo sapiens) (UniProt P12931); test: Inhibition of human full length SRC expressed in baculovirus assessed as substrate phosphorylation using fluorescence-labelled peptides as substrate at 0.2 uM after 90 mins by microfluidic peptide phosphorylation assay
[5] = target: Protein kinase C beta type (Homo sapiens) (UniProt P05771); test: Inhibition of human full length PKC beta2 expressed in baculovirus assessed as substrate phosphorylation using fluorescence-labelled peptides as substrate at 70 uM after 90 mins by microfluidic peptide phosphorylation assay
[6] = target: Aurora kinase B (Homo sapiens) (UniProt Q96GD4); test: Inhibition of human full length AurB expressed in baculovirus assessed as substrate phosphorylation using fluorescence-labelled peptides as substrate at 70 uM after 90 mins by microfluidic peptide phosphorylation assay
[7] = target: RAF proto-oncogene serine/threonine-protein kinase (Homo sapiens) (UniProt P04049); test: Inhibition of human truncated c-Raf expressed in baculovirus assessed as substrate phosphorylation using fluorescence-labelled peptides as substrate at 8 uM after 90 mins by microfluidic peptide phosphorylation assay
[8] = target: T2, Serine/threonine-protein kinase D3 (Homo sapiens) (UniProt O94806); test: Inhibition of human full length PKD3 expressed in baculovirus assessed as substrate phosphorylation using fluorescence-labelled peptides as substrate at 8 uM after 90 mins by microfluidic peptide phosphorylation assay
T2 sequence (whole entry): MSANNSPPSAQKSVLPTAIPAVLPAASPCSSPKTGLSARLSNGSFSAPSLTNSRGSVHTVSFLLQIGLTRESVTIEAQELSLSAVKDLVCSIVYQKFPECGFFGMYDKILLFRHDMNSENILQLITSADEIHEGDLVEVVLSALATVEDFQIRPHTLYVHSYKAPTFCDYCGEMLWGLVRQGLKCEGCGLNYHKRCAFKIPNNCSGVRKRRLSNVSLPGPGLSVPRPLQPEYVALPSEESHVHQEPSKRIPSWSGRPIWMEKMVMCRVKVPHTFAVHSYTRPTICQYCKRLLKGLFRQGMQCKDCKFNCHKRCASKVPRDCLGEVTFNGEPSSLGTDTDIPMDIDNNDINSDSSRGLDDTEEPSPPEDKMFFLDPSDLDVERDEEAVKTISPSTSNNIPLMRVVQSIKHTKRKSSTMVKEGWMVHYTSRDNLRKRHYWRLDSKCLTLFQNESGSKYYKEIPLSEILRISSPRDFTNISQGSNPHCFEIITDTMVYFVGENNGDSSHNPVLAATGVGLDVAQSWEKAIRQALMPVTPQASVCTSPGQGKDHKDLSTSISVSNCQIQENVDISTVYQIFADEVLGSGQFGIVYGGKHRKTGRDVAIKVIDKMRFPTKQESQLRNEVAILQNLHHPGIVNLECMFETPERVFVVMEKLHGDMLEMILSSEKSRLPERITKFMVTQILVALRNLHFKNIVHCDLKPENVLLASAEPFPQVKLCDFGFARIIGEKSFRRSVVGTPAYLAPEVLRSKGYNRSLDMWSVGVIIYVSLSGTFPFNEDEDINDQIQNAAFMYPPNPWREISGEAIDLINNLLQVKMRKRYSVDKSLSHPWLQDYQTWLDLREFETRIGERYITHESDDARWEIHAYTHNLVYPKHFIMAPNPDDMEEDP

[9] = target: Rho-associated protein kinase 2 (Homo sapiens) (UniProt O75116); test: Inhibition of human ROCK2 catalytic domain expressed in baculovirus assessed as substrate phosphorylation using fluorescence-labelled peptides as substrate at 8 uM after 90 mins by microfluidic peptide phosphorylation assay
[10] = tested on: Tyrosine-protein kinase ABL1 (Homo sapiens), P00519 [Q252H]; test: Inhibition of human truncated ABL Q252H mutant expressed in baculovirus assessed as substrate phosphorylation using fluorescence-labelled peptides as substrate at 1000 uM after 90 mins by microfluidic peptide phosphorylation assay
[11] = target: Protein kinase C gamma type (Homo sapiens) (UniProt P05129); test: Inhibition of human truncated PKC gamma expressed in baculovirus assessed as substrate phosphorylation using fluorescence-labelled peptides as substrate at 1000 uM after 90 mins by microfluidic peptide phosphorylation assay
[12] = target: Ribosomal protein S6 kinase alpha-3 (Homo sapiens) (UniProt P51812); test: Inhibition of human full length RSK2 expressed in baculovirus assessed as substrate phosphorylation using fluorescence-labelled peptides as substrate at 2 uM after 90 mins by microfluidic peptide phosphorylation assay
Sequence of Ribosomal protein S6 kinase alpha-3 (Homo sapiens) (P51812 whole entry): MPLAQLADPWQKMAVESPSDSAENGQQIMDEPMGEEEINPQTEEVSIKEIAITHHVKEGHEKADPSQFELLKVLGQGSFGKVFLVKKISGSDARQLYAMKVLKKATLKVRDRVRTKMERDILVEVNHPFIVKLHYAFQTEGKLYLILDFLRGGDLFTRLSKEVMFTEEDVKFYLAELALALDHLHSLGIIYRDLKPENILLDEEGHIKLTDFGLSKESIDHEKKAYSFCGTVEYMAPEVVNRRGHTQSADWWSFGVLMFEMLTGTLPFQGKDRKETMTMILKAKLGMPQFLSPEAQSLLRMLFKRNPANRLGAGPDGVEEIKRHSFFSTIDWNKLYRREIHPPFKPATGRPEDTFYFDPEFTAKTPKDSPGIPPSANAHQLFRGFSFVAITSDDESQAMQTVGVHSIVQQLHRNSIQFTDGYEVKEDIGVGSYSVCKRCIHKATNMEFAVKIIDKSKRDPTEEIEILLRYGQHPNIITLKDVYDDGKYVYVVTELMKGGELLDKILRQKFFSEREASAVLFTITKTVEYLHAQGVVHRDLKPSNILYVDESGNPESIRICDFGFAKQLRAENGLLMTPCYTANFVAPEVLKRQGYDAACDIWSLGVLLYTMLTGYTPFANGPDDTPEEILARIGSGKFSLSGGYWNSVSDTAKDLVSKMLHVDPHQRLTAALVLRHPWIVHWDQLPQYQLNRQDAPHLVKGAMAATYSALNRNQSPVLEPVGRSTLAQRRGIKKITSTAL

Sequence of Rho-associated protein kinase 2 (Homo sapiens) (O75116 whole entry, looked up, the tested form may be a part): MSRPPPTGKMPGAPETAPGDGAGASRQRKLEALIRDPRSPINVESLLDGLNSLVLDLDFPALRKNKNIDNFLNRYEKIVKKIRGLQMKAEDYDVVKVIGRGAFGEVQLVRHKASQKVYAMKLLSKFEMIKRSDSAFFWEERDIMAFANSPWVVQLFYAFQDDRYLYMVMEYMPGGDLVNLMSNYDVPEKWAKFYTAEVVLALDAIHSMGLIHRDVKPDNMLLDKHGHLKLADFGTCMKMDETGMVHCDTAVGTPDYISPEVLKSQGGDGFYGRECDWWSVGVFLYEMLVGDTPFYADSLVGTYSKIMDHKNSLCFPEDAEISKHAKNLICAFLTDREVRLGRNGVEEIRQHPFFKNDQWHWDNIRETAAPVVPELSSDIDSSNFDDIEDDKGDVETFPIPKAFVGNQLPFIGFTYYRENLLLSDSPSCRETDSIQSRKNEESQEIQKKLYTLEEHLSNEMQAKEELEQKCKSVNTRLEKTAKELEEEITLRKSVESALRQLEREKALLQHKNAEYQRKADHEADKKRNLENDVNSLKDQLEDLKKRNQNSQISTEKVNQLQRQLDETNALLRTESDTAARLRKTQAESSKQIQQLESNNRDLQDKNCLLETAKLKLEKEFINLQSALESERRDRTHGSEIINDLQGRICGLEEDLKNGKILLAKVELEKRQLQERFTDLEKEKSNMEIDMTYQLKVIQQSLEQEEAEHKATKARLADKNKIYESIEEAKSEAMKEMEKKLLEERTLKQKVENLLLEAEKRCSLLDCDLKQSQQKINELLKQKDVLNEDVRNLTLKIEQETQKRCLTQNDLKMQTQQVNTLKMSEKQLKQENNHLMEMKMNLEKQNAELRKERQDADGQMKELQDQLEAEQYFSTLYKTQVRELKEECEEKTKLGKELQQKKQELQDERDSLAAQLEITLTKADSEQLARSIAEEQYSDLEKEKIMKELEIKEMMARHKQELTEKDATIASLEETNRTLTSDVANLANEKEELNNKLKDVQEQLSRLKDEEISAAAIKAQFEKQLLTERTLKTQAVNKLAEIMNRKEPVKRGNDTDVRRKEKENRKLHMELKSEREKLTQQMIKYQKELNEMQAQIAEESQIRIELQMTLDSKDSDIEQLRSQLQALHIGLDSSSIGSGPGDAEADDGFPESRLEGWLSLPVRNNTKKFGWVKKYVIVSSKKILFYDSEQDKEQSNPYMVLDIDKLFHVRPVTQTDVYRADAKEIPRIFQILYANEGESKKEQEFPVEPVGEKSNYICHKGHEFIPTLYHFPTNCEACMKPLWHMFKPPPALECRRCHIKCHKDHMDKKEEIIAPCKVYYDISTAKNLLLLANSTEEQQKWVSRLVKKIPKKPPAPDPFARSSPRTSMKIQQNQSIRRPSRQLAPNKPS
Sequence of Fibroblast growth factor receptor 2 (Homo sapiens), P21802 [N549H] (P21802 whole entry N549H, the tested form may be a part): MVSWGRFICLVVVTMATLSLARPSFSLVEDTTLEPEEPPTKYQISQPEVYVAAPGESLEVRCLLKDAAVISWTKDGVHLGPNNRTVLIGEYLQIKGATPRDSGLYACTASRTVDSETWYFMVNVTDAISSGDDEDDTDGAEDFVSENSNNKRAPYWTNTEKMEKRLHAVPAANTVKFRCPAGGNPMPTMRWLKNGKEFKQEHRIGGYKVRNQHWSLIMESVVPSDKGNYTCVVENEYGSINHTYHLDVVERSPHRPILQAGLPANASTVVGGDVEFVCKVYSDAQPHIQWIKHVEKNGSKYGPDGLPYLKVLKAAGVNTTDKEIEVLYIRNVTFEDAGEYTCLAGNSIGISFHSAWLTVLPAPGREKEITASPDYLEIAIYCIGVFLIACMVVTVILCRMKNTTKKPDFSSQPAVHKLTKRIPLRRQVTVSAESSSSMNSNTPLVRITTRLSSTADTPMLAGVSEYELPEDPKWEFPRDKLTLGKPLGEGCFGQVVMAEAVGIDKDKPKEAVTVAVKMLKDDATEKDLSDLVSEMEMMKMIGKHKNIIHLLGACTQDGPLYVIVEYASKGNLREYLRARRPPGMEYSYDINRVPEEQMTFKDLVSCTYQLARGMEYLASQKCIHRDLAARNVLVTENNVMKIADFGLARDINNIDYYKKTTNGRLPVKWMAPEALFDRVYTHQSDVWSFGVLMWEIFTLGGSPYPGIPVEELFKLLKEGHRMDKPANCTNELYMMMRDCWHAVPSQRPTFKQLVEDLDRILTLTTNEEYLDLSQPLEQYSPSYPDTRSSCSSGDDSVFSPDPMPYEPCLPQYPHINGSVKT
Sequence of Proto-oncogene tyrosine-protein kinase Src (Homo sapiens) (P12931 2-536 limits assumed): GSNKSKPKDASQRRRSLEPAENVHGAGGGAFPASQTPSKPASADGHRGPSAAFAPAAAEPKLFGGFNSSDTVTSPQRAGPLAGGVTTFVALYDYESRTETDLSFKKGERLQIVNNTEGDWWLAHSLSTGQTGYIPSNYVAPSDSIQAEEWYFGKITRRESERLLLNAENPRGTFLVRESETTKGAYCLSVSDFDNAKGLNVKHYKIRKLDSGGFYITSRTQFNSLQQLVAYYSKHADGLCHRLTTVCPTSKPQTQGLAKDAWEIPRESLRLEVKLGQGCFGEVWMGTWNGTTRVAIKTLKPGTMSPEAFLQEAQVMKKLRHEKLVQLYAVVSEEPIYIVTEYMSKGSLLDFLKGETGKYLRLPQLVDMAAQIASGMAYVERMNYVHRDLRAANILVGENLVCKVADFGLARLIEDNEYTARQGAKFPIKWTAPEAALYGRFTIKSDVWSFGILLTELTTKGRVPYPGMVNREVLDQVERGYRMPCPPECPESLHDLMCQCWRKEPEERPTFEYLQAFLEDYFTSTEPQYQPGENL
Sequence of Aurora kinase B (Homo sapiens) (Q96GD4 whole entry, the tested form may be a part): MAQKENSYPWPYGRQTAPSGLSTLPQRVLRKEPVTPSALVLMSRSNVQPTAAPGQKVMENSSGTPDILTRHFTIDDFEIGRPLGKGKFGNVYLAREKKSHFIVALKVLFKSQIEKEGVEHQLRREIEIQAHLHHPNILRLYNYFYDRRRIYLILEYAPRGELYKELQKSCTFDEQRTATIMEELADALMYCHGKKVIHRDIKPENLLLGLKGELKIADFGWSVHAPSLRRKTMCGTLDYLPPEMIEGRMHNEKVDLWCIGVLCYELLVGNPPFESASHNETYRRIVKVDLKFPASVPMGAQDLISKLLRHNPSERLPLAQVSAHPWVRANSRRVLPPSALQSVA

## NC1(Cc2ccc(Cl)cc2)CCN(c2ncnc3[nH]ccc23)CC1
[1]
  inhibition: 5%

## c1nc(N2CCOCC2)c2nc[nH]c2n1
[2]
  inhibition: 67.5%

## Clc1ccc(C2(c3ccc(-c4ncnc5[nH]cnc45)cc3)CCNCC2)cc1
[3]
  inhibition: 4%
[4]
  inhibition: 24.5%

## CNCc1ccc(-c2ncnc3[nH]cnc23)cc1
[5]
  inhibition: 0%
[6]
  inhibition: 85%

## NCC1CCN(c2ncnc3[nH]ccc23)CC1
[7]
  inhibition: 2.5%
[8]
  inhibition: 0%
[9]
  inhibition: 89.5%

## c1cnc2[nH]ccc2c1
[10]
  inhibition: 29%
[11]
  inhibition: 57%

## NC1CCN(c2ncnc3[nH]ccc23)CC1
[12]
  inhibition: 2%
